Each structure is given as a SMILES string.

These results are taken from US20160159814A1, “GLYCINE TRANSPORTER INHIBITOR” (TAISHO PHARMACEUTICAL CO., LTD., priority 2013, published 2016).

One test has as its target T1, human type 1 glycine transporter (GlyT1) (Homo sapiens, UniProt P48067).
T1 construct: T98G cells (glioma cells) expressing human type 1 glycine transporter (GlyT1) were used; endogenous in cells; host or cells: T98G cells (human glioma cells)
T1 sequence (P48067 1-706): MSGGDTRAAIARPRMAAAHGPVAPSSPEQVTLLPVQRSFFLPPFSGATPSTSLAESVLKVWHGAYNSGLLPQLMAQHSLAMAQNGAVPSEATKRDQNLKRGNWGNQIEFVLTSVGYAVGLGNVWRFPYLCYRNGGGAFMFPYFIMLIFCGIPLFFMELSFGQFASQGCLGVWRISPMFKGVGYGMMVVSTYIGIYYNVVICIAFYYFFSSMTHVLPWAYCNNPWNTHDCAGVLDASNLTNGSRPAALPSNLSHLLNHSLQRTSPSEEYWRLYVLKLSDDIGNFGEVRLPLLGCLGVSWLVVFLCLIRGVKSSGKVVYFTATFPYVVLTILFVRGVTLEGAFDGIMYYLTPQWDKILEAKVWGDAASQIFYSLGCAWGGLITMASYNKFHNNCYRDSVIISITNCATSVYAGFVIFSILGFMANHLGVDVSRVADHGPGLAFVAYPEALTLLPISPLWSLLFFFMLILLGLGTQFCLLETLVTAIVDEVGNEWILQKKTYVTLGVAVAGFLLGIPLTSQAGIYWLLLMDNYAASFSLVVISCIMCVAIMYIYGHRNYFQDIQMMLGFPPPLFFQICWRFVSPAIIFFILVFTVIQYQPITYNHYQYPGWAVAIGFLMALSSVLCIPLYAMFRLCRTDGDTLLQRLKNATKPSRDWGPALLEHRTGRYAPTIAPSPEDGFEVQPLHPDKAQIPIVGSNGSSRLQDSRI
The test is described as follows: Glycine uptake inhibition experiment ([3H] glycine uptake in T98G cells expressing GlyT1). The class given is cell-based.
Details: not given
The procedure:
Glycine Uptake Inhibition Experiment
A glycine uptake experiment was conducted in accordance with the method published in Neuron, 8, 927-935, 1992. In the experiment, T98G cells (glioma cells) expressing human type 1 glycine transporter (GlyT1) were used. The T98G cells were seeded in a 96-well plate at 2.0×10^4 cells/well and cultured overnight in a CO2 incubator. The test substance was dissolved in a 100% DMSO solution and then dissolved in a 10 mM HEPES buffer solution (pH 7.4) containing 150 mM sodium chloride, 1 mM calcium chloride, 5 mM potassium chloride, 1 mM magnesium chloride, 10 mM glucose and 0.2% bovine serum albumin. After removing the cell culture medium, the test substance was subjected to a 10-min pretreatment. Subsequently, the test substance and [^3H] glycine (final concentration: 250 nM) were added to the cells and reaction was performed at room temperature for 15 minutes. After the end of the reaction, the extracellular fluid was aspirated with a manifold to remove excess labeled glycine present outside the cells, and then the cells were lysed with a 0.5 M aqueous sodium hydroxide solution. The glycine content in the cells was determined by measuring the radioactivity in the cell lysate with a liquid scintillation counter. Glycine uptake in the presence of 10 μM ALX5407 was defined as non-specific uptake, and the value calculated by subtracting the amount of the non-specific uptake from the total uptake in the absence of 10 μM ALX5407 was defined as specific uptake. In addition, glycine uptake inhibitory activity (IC50 value) was calculated from an inhibition curve at the concentrations of each test substance ranging from 10^−9 to 10^−5 M. It should be noted that ALX5407 is an HCl salt of N-[(3R)-3-([1,1′-biphenyl]-4-yloxy)-3-(4-fluorophenyl)propyl]-N-methylglycine.
For orientation: IC50 means the midpoint of a concentration-inhibition curve. Low readings indicate inhibition by little substance, high ones a need for much substance. With `C[C@H](O)c1cccc2c1C(F)(F)C(=O)N2Cc1cnc(F)c(C#N)c1` [Compound 235, 5-({3,3-difluoro-4-[(1S)-1-hydroxyethyl]-2-oxo-2,3-dihydro-1H-indol-1-yl}methyl)-2-fluoropyridine-3-carbonitrile], the IC50 came out at 23 nM.
`C[C@H](O)c1cccc2c1C(F)(F)C(=O)N2Cc1ccc(Cl)c(C#N)n1` [Compound 202, 3-chloro-6-({3,3-difluoro-4-[(1S)-1-hydroxyethyl]-2-oxo-2,3-dihydro-1H-indol-1-yl)methyl)pyridine-2-carbonitrile]: the IC50 was 6.9 nM.
On the same count and under the same terms, to `CCOc1ccc(CN2C(=O)C(F)(F)c3c(C(O)C(F)F)cccc32)cn1` (single isomer, unassigned) [Compound 278, 4-(2,2-difluoro-1-hydroxyethyl)-1-[(6-ethoxypyridin-3-yl)methyl]-3,3-difluoro-1,3-dehydro-2H-indol-2-one] belongs 210 nM.
The same measure, in the same setting: to `C[C@H](O)c1cccc2c1C(F)(F)C(=O)N2Cc1ncccc1Br` [Compound 211, 1-[(3-bromopyridin-2-yl)methyl]-3,3-difluoro-4-[(1S)-1-hydroxyethyl]-1,3-dihydro-2H-indol-2-one] belongs 85 nM; to `O=C1N(Cc2cncc(Cl)c2)c2c(F)ccc(C(O)C(F)F)c2C1(F)F` (stereo not drawn) [Compound 252, 1-[(5-chloropyridin-3-yl)methyl]-4-(2,2-difluoro-1-hydroxyethyl)-3,3,7-trifluoro-1,3-dihydro-2H-indol-2-one], 46 nM.
In turn, `COc1cc(CN2C(=O)C(F)(F)c3c([C@@H](O)C(F)(F)F)cccc32)ccn1` [Compound 166, 3,3-difluoro-1-[(2-methoxypyridin-4-yl)methyl]-4-[(1R)-2,2,2-trifluoro-1-hydroxyethyl]-1,3-dihydro-2H-indol-2-one] gave a 50% inhibitory concentration (IC50) of 26 nM.
`C[C@H](O)c1cccc2c1C(F)(F)C(=O)N2Cc1ccc(F)c(Br)n1` [Compound 229, 1-[(6-bromo-5-fluoropyridin-2-yl)methyl]-3,3-difluoro-4-[(1S)-1-hydroxyethyl)-1,3-dihydro-2H-indol-2-one] displayed an IC50 of 1.7 nM.
Consider `C[C@H](O)c1cccc2c1C(F)(F)C(=O)N2Cc1ccncc1F` [Compound 163, 3,3-difluoro-1-[(3-fluoropyridin-4-yl)methyl]-4-[(1S)-1-hydroxyethyl]-1,3-dihydro-2H-indol-2-one], for which the IC50 was 410 nM.
On to `COc1ccc(CN2C(=O)C(F)(F)c3c(C(O)C(F)F)cccc32)cn1` (single isomer, unassigned) [Compound 255, 4-(2,2-difluoro-1-hydroxyethyl)-3,3-difluoro-1-[(6-methoxypyridin-3-yl)methyl)-1,3-dihydro-2H-indol-2-one], for which the IC50 amounted to 69 nM.
Regarding `C[C@H](O)c1cccc2c1C(F)(F)C(=O)N2Cc1ccncc1Cl` [Compound 185, 1-[(3-chloropyridin-4-yl)methyl]-3,3-difluoro-4-[(1S)-1-hydroxyethyl]-1,3-dihydro-2H-indol-2-one], the IC50 amounted to 280 nM.

The same test, now with this note: glycine uptake inhibition.
Consider `C[C@H](O)c1cccc2c1C(F)(F)C(=O)N2Cc1ccc(Cl)nc1` [Compound 102, 1-[(6-chloropyridin-3-yl)methyl]-3,3-difluoro-4-[(1S)-1-hydroxyethyl]-1,3-dihydro-2H-indol-2-one], for which the midpoint of inhibition, the IC50, lay at 91 nM.
On the same count and under the same terms, to `O=C1N(Cc2ccc(F)nc2)c2cccc(C(O)C(F)F)c2C1(F)F` (single isomer, unassigned) [Compound 156, 4-(2,2-difluoro-1-hydroxyethyl)-3,3-difluoro-1-[(6-fluoropyridin-3-yl)methyl]-1,3-dihydro-2H-indol-2-one] belongs 110 nM; to `C[C@H](O)c1cccc2c1C(F)(F)C(=O)N2Cc1cccc(-n2nccn2)n1` [Compound 44, 3,3-difluoro-4-[(1S)-1-hydroxyethyl]-1-{[6-(2H-1,2,3-triazol-2-yl)pyridin-2-yl]methyl}-1,3-dihydro-2H-indol-2-one], 68 nM; to `COc1cc(CN2C(=O)C(F)(F)c3c([C@H](C)O)cccc32)ccn1` [Compound 124, 3,3-difluoro-4-[(1S)-1-hydroxyethyl]-1-[(2-methoxypyridin-4-yl)methyl]-1,3-dihydro-2H-indol-2-one], 12 nM.
Regarding `C[C@H](O)c1cccc2c1C(F)(F)C(=O)N2Cc1ccc(F)cn1` [Compound 114, 3,3-difluoro-1-[(5-fluoropyridin-2-yl)methyl]-4-[(1S)-1-hydroxyethyl]-1,3-dihydro-2H-indol-2-one], the IC50 came out at 61 nM.
With `CC(O)c1cccc2c1C(F)(F)C(=O)N2Cc1cncc(Cl)c1` (stereo not drawn) [Compound 3, 1-[(5-chloropyridin-3-yl)methyl]-3,3-difluoro-4-(1-hydroxyethyl)-1,3-dihydro-2H-indol-2-one], inhibition was half-maximal at 32 nM (IC50).
As to `C[C@H](O)c1cccc2c1C(F)(F)C(=O)N2Cc1cccc(C#N)c1` [Compound 57, 3-({3,3-difluoro-4-[(1S)-1-hydroxyethyl]-2-oxo-2,3-dihydro-1H-indol-1-yl}methyl) benzonitrile], the midpoint of inhibition, the IC50, lay at 15 nM.
`O=C1N(Cc2cncc(Cl)c2)c2ccc(F)c(C(O)C(F)F)c2C1(F)F` (single isomer, unassigned) [Compound 135, 1-[(5-chloropyridin-3-yl)methyl]-4-(2,2-difluoro-1-hydroxyethyl)-3,3,5-trifluoro-1,3-dihydro-2H-indol-2-one] had an IC50 of 57 nM.
On to `O=C1N(Cc2cccc(Cl)n2)c2cccc(C(O)C(F)(F)F)c2C1(F)F` (stereo not drawn) [Compound 2, 1-[(6-chloropyridin-2-yl)methyl]-3,3-difluoro-4-(2,2,2-trifluoro-1-hydroxyethyl)-1,3-dihydro-2H-indol-2-one], for which the IC50 was 51 nM.
For `O=C1N(Cc2cncc(Cl)c2)c2cccc(C(O)C(F)(F)F)c2C1(F)F` (stereo not drawn) [Compound 17, 1-[(5-chloropyridin-3-yl)methyl]-3,3-difluoro-4-(2,2,2-trifluoro-1-hydroxyethyl)-1,3-dihydro-2H-indol-2-one], inhibition was half-maximal at 72 nM (IC50).
`CC(O)c1cccc2c1C(F)(F)C(=O)N2Cc1ccnc(Cl)c1` (single isomer, unassigned) [Compound 33, 1-[(2-chloropyridin-4-yl)methyl]-3,3-difluoro-4-(1-hydroxyethyl)-1,3-dihydro-2H-indol-2-one] had a concentration for half-maximal inhibition (IC50) of 18 nM.
In turn, `CC(c1cccc(Cl)n1)N1C(=O)C(F)(F)c2c([C@H](C)O)cccc21` (stereo partly drawn) [Compound 51, 1-[1-(6-chloropyridin-2-yl)ethyl]-3,3-difluoro-4-[(1S)-1-hydroxyethyl]-1,3-dihydro-2H-indol-2-one] registered an IC50 of 260 nM.
`C[C@H](O)c1cccc2c1C(F)(F)C(=O)N2Cc1ccnc(-n2cncn2)c1` [Compound 69, 3,3-difluoro-4-[(1S)-1-hydroxyethyl]-1-{[2-(1H-1,2,4-triazol-1-yl)pyridin-4-yl]methyl}-1,3-dihydro-2H-indol-2-one] gave an IC50 of 45 nM.
The compound `C[C@H](O)c1cccc2c1C(F)(F)C(=O)N2Cc1cccnc1` [Compound 61, 3,3-difluoro-4-[(1S)-1-hydroxyethyl]-1-(pyridin-3-ylmethyl)-1,3-dihydro-2H-indol-2-one] displayed an IC50 of 420 nM.
`C[C@H](O)c1cccc2c1C(F)(F)C(=O)N2Cc1ccc(Cl)cn1` [Compound 103, 1-[(5-chloropyridin-2-yl)methyl]-3,3-difluoro-4-[(1S)-1-hydroxyethyl]-1,3-dihydro-2H-indol-2-one]: inhibition was half-maximal at 44 nM (IC50).
`O=C1N(Cc2cccc(F)c2)c2cccc(C(O)C(F)F)c2C1(F)F` (single isomer, unassigned) [Compound 158, 4-(2,2-difluoro-1-hydroxyethyl)-3,3-difluoro-1-(3-fluorobenzyl)-1,3-dihydro-2H-indol-2-one]: the midpoint of inhibition, the IC50, lay at 16 nM.
With `O=C1N(Cc2ccc(F)nc2)c2cccc([C@@H](O)C(F)(F)F)c2C1(F)F` [Compound 155, 3,3-difluoro-1-[(6-fluoropyridin-3-yl)methyl]-4-[(1R)-2,2,2-trifluoro-1-hydroxyethyl]-1,3-dihydro-2H-indol-2-one], inhibition was half-maximal at 180 nM (IC50).
